From US10561614B2, “Tenofovir granules” (STEERLIFE INDIA PRIVATE LIMITED, priority 2017, dated 2020)

Test: Organic impurities of TDF granules by HPLC (USP Pending Monograph procedure 1), before and after twin screw granulation
Format: physicochemical
Settings: initial, no storage
Description: The test of organic impurities of Tenofovir Disoproxil Fumarate granules carried out by HPLC (Make-Agilent 1260 Infinity series).
The Tenofovir Disoproxil Fumarate granules sample was analyzed for organic impurities as per method based on Organic impurities, procedure 1 of USP Pending Monographs of Tenofovir Disoproxil Fumarate v.1 Authorized Sep. 1, 2011.
The standard, Tenofovir Disoproxil Fumarate (TDF) was prepared in solution A. concentration 0.502 μg/mL in solution. The sample i.e., TDF granules of the present invention was prepared in solution A, concentration 520.05 μg/mL.
The standard and sample solution was injected in chromatographic system and following impurity results are reported.
The test of organic impurities of Tenofovir Disoproxil Fumarate granules carried out by HPLC (Agilent 1260 Infinity series).
The Tenofovir Disoproxil Fumarate granules sample were analyzed for organic impurities as per Organic impurities, procedure 1 of USP Pending Monographs of Tenofovir Disoproxil Fumarate v.1 Authorized Sep. 1, 2011.
The standard [Tenofovir Disoproxil Fumarate (TDF)] was prepared in solution A. concentration 0.502 μg/mL in solution.
The sample [TDF granules of the present invention] was prepared in solution A, concentration 520.05 μg/mL.

(R)-9-(2-Phosphonomethoxypropyl)adenine impurity: BDL | Adenine impurity: Not detected | Any individual unspecified impurity: 0.02% | Tenofovir disoproxil carbamate impurity: Not detected | Tenofovir disoproxil dimer impurity: 0.04% | Tenofovir disoproxil ethyl ester impurity: 0.03% | Tenofovir isopropyl isoproxil impurity: 0.17% | Tenofovir isoproxil monoester impurity: 0.48% | Total impurities: 0.84% | Adenine impurity (listed as Unprocessed (API)): BDL | Any individual unspecified impurity (listed as Unprocessed (API)): 0.015% | Tenofovir isopropyl isoproxil impurity (listed as Unprocessed (API)): 0.118% | Tenofovir isoproxil monoester impurity (listed as Unprocessed (API)): 0.321% | Total impurities (listed as Unprocessed (API)): 0.490%
SMILES: CC(C)OC(=O)OCOP(=O)(CO[C@H](C)Cn1cnc2c(N)ncnc21)OCOC(=O)OC(C)C.O=C(O)/C=C/C(=O)O [Unprocessed TDF API, 9-[(R)-2-[[bis[[(isopropoxycarbonyl)oxy]-methoxy]phosphinyl]methoxy]propyl]adenine fumarate (1:1)]
